Results reported in PubChem BioAssay (NCI).
Where “and” joins values, the source holds several entries; their conditions need not be identical. Equal values may be shown once.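 Grown in 96-well plates, cells were treated for 48 hours with each compound at five concentrations. Insufficient inhibition: endpoint recorded as highest concentration tested. GI50 is the concentration that inhibits growth by half. TGI denotes the concentration required for complete inhibition of growth.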

Columns and labels:
Test in all cases: NCI anticancer screen, dose series, 48 h
TK-10 renal = test system: TK-10 renal
HCC-2998 colon = test system: HCC-2998 colon
MCF7 breast = test system: MCF7 breast
NCI-H226 lung = test system: NCI-H226 lung
MDA-MB-435 = test system: MDA-MB-435
T-47D breast = test system: T-47D breast
U251 CNS = test system: U251 CNS
SF-268 CNS = test system: SF-268 CNS
MDA-MB-231 breast = test system: MDA-MB-231 breast
HOP-92 NSCLC = test system: HOP-92 NSCLC

## CCn1c(-c2cc3c([nH]c4ccccc43)c(-c3cccc(O)c3)n2)n[nH]c1=S
TK-10 renal
  GI50: 3.64 µM
  TGI: 14.8 µM
HCC-2998 colon
  GI50: 4.77 µM
  TGI: 17.5 µM
MCF7 breast
  GI50: 2.79 µM
  TGI: 14 µM
NCI-H226 lung
  GI50: 6.45 µM
  TGI: 55.8 µM
MDA-MB-435
  GI50: 0.0496 µM
  TGI: 2.94 µM
T-47D breast
  GI50: 2.36 µM
  TGI: 9.12 µM
U251 CNS
  GI50: 3.18 µM
  TGI: 15.1 µM
SF-268 CNS
  GI50: 4.04 µM
  TGI: 17.4 µM
MDA-MB-231 breast
  GI50: 2.79 µM
  TGI: 15.6 µM

## CCOC(=O)CN(Cn1cncn1)Cn1cncn1
TK-10 renal
  TGI: > 100 µM
HCC-2998 colon
  TGI: > 100 µM
NCI-H226 lung
  TGI: 79.2 µM
HOP-92 NSCLC
  TGI: > 100 µM
U251 CNS
  TGI: 33.7 µM

## COc1ccc(C(=O)c2cc3c(N)c(C(=O)Nc4ccccc4)sc3nc2C)cc1
TK-10 renal
  GI50: 8.04 µM
  TGI: > 100 µM
HCC-2998 colon
  GI50: 1.96 µM
  TGI: 55.3 µM
MCF7 breast
  GI50: 0.373 µM
  TGI: > 100 µM
NCI-H226 lung
  GI50: 11.1 µM
  TGI: > 100 µM
HOP-92 NSCLC
  GI50: 86.3 µM
  TGI: > 100 µM
T-47D breast
  GI50: 0.74 µM
  TGI: > 100 µM
U251 CNS
  GI50: 0.704 µM
  TGI: > 100 µM
SF-268 CNS
  GI50: 3.65 µM
  TGI: > 100 µM
MDA-MB-231 breast
  GI50: 2.43 µM
  TGI: > 100 µM

## O=C(O)c1cc(=O)c2c([nH]c3ccccc32)s1
TK-10 renal
  TGI: > 100 µM
HCC-2998 colon
  TGI: > 100 µM
HOP-92 NSCLC
  TGI: > 100 µM
SF-268 CNS
  TGI: > 100 µM

## COc1ccc(-c2cc(C(=O)Nc3cc(C(F)(F)F)cc(C(F)(F)F)c3)c3ccccc3n2)cc1
TK-10 renal
  TGI: 29.5 µM
HCC-2998 colon
  TGI: 29.7 µM
NCI-H226 lung
  TGI: 46.9 µM
U251 CNS
  TGI: 15.5 µM
SF-268 CNS
  TGI: 32.2 µM

## COC(=O)C1=C(CS(=O)c2ccc([N+](=O)[O-])cc2[N+](=O)[O-])C2C=CC1C2 (configuration not stated)
TK-10 renal
  TGI: 51.7 µM
HCC-2998 colon
  TGI: 95.3 µM
NCI-H226 lung
  TGI: 98.4 µM
U251 CNS
  TGI: 49.4 µM
SF-268 CNS
  TGI: > 100 µM

## N/C(=N\NS(=O)(=O)c1ccccc1)Oc1ccc(Br)cc1Br
TK-10 renal
  TGI: > 100 µM
HCC-2998 colon
  TGI: > 100 µM
NCI-H226 lung
  TGI: > 100 µM
HOP-92 NSCLC
  TGI: > 100 µM
U251 CNS
  TGI: > 100 µM
SF-268 CNS
  TGI: > 100 µM

## NCCCCC1NC(=O)C(CC(=O)O)NC(=O)CNC(=O)C(CCCN=C(N)N)NC(=O)C(N)CSSCC(C(=O)O)NC(=O)C(CC(=O)O)NC(=O)C2CCCN2C(=O)CNC1=O (configuration not stated)
TK-10 renal
  GI50: > 100 µM
  TGI: > 100 µM
HCC-2998 colon
  GI50: > 100 µM
  TGI: > 100 µM
MCF7 breast
  GI50: > 100 µM
  TGI: > 100 µM
NCI-H226 lung
  GI50: > 100 µM
  TGI: > 100 µM
MDA-MB-435
  GI50: > 100 µM
  TGI: > 100 µM
T-47D breast
  GI50: > 100 µM
  TGI: > 100 µM
U251 CNS
  GI50: > 100 µM
  TGI: > 100 µM
SF-268 CNS
  GI50: > 100 µM
  TGI: > 100 µM
MDA-MB-231 breast
  GI50: > 100 µM
  TGI: > 100 µM

## CC1(c2cc3c(cc2Br)OCO3)SCCCS1
TK-10 renal
  TGI: > 100 µM
HCC-2998 colon
  TGI: 77.3 µM
NCI-H226 lung
  TGI: > 100 µM
HOP-92 NSCLC
  TGI: 51.7 µM
U251 CNS
  TGI: > 100 µM
SF-268 CNS
  TGI: > 100 µM

## CC(C)(O)/C=C/C(=O)[C@](C)(O)[C@H]1[C@H](O)C[C@@]2(C)[C@@H]3CC=C4[C@@H](C[C@H](O)C(=O)C4(C)C)[C@]3(C)C(=O)C[C@]12C
TK-10 renal
  TGI: 0.473 µM and 0.495 µM
HCC-2998 colon
  GI50: 0.371 µM and 0.647 µM
  TGI: 8.67 µM
NCI-H226 lung
  GI50: 0.174 µM
  TGI: 0.642 µM and 0.913 µM
HOP-92 NSCLC
  GI50: 0.255 µM
  TGI: 0.439 µM and 0.407 µM
U251 CNS
  GI50: 0.105 µM
  TGI: 0.419 µM and 0.322 µM
SF-268 CNS
  TGI: 0.631 µM and 0.807 µM

## Clc1cccc(N2CCN(CCCN3CCc4c([nH]c5ccccc45)C3c3cccnc3)CC2)c1 (configuration not stated)
HCC-2998 colon
  GI50: 3.06 µM
  TGI: 11.9 µM
NCI-H226 lung
  TGI: 35.8 µM
HOP-92 NSCLC
  GI50: 12.8 µM
  TGI: 31.3 µM
U251 CNS
  TGI: 23.9 µM

## Cc1c2c(cc3c1C(=O)C(=O)C1=C3OC[C@@H]1C)C(C)(C)CCC2
TK-10 renal
  TGI: 56.7 µM
HCC-2998 colon
  TGI: 42.4 µM
HOP-92 NSCLC
  TGI: 61.2 µM
U251 CNS
  TGI: 34.4 µM
SF-268 CNS
  TGI: 35.4 µM

## COC(=O)C12CC(NC(=O)c3csc([C@@H](C[C@H](C(C)C)N(C)C(=O)[C@@H](NC(=O)[C@H]4CCCCN4C)C4CC4)OC(C)=O)n3)(C1)C2
TK-10 renal
  GI50: 1.15 µM
  TGI: > 16.7 µM
HCC-2998 colon
  GI50: 0.0851 µM
  TGI: > 16.7 µM
MCF7 breast
  GI50: 0.00813 µM
  TGI: > 16.7 µM
NCI-H226 lung
  GI50: 0.582 µM
  TGI: > 16.7 µM
MDA-MB-435
  GI50: 0.00243 µM
  TGI: 0.0197 µM
U251 CNS
  GI50: 0.0474 µM
  TGI: > 16.7 µM
SF-268 CNS
  GI50: 0.023 µM
  TGI: > 16.7 µM
MDA-MB-231 breast
  GI50: 0.0435 µM
  TGI: > 16.7 µM

## Cc1nc2ccc(Br)cc2c(=O)n1-c1ccc(NC2OCC(O)C(O)C2O)cc1 (configuration not stated)
TK-10 renal
  TGI: > 100 µM
HCC-2998 colon
  GI50: 19.1 µM and > 100 µM
  TGI: 40.4 µM and > 100 µM
MCF7 breast
  GI50: 20.8 µM and > 100 µM
  TGI: 51.9 µM and > 100 µM
NCI-H226 lung
  TGI: > 100 µM
MDA-MB-435
  GI50: 36 µM and > 100 µM
  TGI: > 100 µM
HOP-92 NSCLC
  GI50: 22.4 µM and > 100 µM
  TGI: 64.2 µM and > 100 µM
SF-268 CNS
  TGI: > 100 µM
MDA-MB-231 breast
  GI50: 47.6 µM and > 100 µM
  TGI: > 100 µM

## COc1ccc(NC(=O)/C=C(C)/C=C/C=C(C)/C=C/C2=C(C)CCCC2(C)C)cc1
TK-10 renal
  GI50: 37.5 µM
  TGI: 58.2 µM
HCC-2998 colon
  GI50: 17.7 µM
  TGI: 33.5 µM
MCF7 breast
  GI50: 3.28 µM
  TGI: 12.4 µM
NCI-H226 lung
  GI50: 2.83 µM
  TGI: 6.7 µM
MDA-MB-435
  GI50: 5.47 µM
  TGI: 19.1 µM
T-47D breast
  GI50: 3.75 µM
  TGI: 16.1 µM
U251 CNS
  GI50: 4.76 µM
  TGI: 17.9 µM
SF-268 CNS
  GI50: 4.95 µM
  TGI: 17.3 µM
MDA-MB-231 breast
  GI50: 4.25 µM
  TGI: 15.1 µM

## CCOC(=O)c1c(C)n(Cc2ccc(Cl)cc2Cl)c2c1cc1oc(=O)c(=O)n3cnc2c13
TK-10 renal
  GI50: 17.4 µM
  TGI: 33 µM
NCI-H226 lung
  GI50: 19.7 µM
  TGI: 39.5 µM
MDA-MB-435
  GI50: 16.3 µM
  TGI: 30.9 µM
HOP-92 NSCLC
  GI50: 13.9 µM
  TGI: 27.2 µM
T-47D breast
  GI50: 12.8 µM
  TGI: 27.7 µM
U251 CNS
  GI50: 14.7 µM
  TGI: 27.9 µM
SF-268 CNS
  GI50: 16.3 µM
  TGI: 33.3 µM
MDA-MB-231 breast
  GI50: 15.7 µM
  TGI: 31.4 µM

## O=C1C(=O)N(c2ccc(Cl)cc2)C(=O)C(=O)C1c1nc2ccccc2s1
TK-10 renal
  TGI: > 100 µM
HCC-2998 colon
  TGI: > 100 µM
NCI-H226 lung
  TGI: > 100 µM
HOP-92 NSCLC
  TGI: > 100 µM
U251 CNS
  TGI: > 100 µM
SF-268 CNS
  TGI: > 100 µM

## NC(=O)c1cc(N(CCO)CCO)c([N+](=O)[O-])cc1[N+](=O)[O-]
TK-10 renal
  TGI: > 100 µM
HCC-2998 colon
  TGI: > 100 µM
MCF7 breast
  TGI: > 100 µM
NCI-H226 lung
  TGI: > 100 µM
MDA-MB-435
  TGI: > 100 µM
HOP-92 NSCLC
  TGI: > 100 µM
T-47D breast
  TGI: > 100 µM
U251 CNS
  TGI: > 100 µM
SF-268 CNS
  TGI: > 100 µM

## CCC(C)Oc1nc2c(c(=O)n(C)c(=O)n2C)n1C (configuration not stated)
TK-10 renal
  GI50: > 100 µM
  TGI: > 100 µM
MCF7 breast
  GI50: > 100 µM
  TGI: > 100 µM
NCI-H226 lung
  GI50: > 100 µM
  TGI: > 100 µM
MDA-MB-435
  GI50: > 100 µM
  TGI: > 100 µM
HOP-92 NSCLC
  GI50: > 100 µM
  TGI: > 100 µM
T-47D breast
  GI50: > 100 µM
  TGI: > 100 µM
U251 CNS
  GI50: > 100 µM
  TGI: > 100 µM
SF-268 CNS
  GI50: > 100 µM
  TGI: > 100 µM
MDA-MB-231 breast
  GI50: > 100 µM
  TGI: > 100 µM
